One compound from patent US6540991B2, “Stabilized active materials” (3M Innovative Properties Company, priority 2001, dated 2003) can be followed below.

This data set is described as follows: typical duration of codlemone in the intended environment (stabilization of insect pheromone). The class given is physicochemical. The conditions noted are these: dissipation into the intended environment; codling moth pheromone, nonstabilized vs stabilized with 2,2′-Methylenebis(6-t-butyl-p-cresol). The text has this: Because the insect pheromone can be provided in a stabilized format, a long lasting delivery system may be engineered to provide slow release over a long duration of time. The stabilized format allows for a slow release from a single application without spiking as may be obtainable from multiple applications. “Spiking” as used herein may be triggered by instantaneous or short-term release of the active agents from the shell. Since a mating cycle of a given insect pest may last up to 4-6 weeks in length, the slow release of an insect pheromone may be desirable to provide effective control of insect mating over the duration. Thus, the present invention may be used to control the release rate of insect pheromones thereby effectively controlling and disrupting the mating behavior of the species in a particular intended environment. For example, an insect pheromone for codling moth can be made to steadily dissipate into the intended environment over the duration of a mating cycle for codling moth. A typical duration for a nonstabilized codlemone, the insect pheromone for the codling moth is less than 1 week, as against about 6 weeks for codlemone stabilized according to the present invention.

As to `C/C=C/C=C/CCCCCCCO` [nonstabilized codlemone, E,E-8,10 C12 alcohol], the typical duration entry is recorded as “less than 1 week”.
